# US11099188B2, “ROS kinase in lung cancer” (CELL SIGNALING TECHNOLOGY, INC., priority 2006, dated 2021)
# Key:
# [1] = biological target: FIG-ROS(L) (Homo sapiens, UniProt P08922); test: Western blotting of phosphorylation in FIG-ROS(L) expressing BaF3 cells; assay type: cell-based
# From the text: (§1) All antibodies were from Cell Signaling Technology, Inc. (Danvers, Mass.)
# (§2) Since ROS, ALK, LTK, InsR, and IGF1R belong to the same family of tyrosine kinases, they may share similar structure in the kinase domain.
# [2] = tested on: BaF3 expressing FIG-ROS(L); test: MTS assay, growth of BaF3 cells expressing FIG-ROS(L); assay type: cell-based; details: for IC50: Mus musculus, BaF3, 72 h
# Procedure: (§3) BaF3 and Karpas 299 cells were obtained from DSMZ (Deutsche Sammlung von Mikroorganismen and Zellkulturen GmbH, Germany). BaF3 cells, which need interleukin-3 to survive, were maintained at 37° C. in RPMI-1640 medium (Invitrogen) with 10% fetal bovine serum (FBS) (Sigma) and 1.0 ng/ml murine IL-3 (R&D Systems). Karpas 299 cells (a lymphoma cell line) were grown in RPMI-1640 with 10% FBS.
# (§4) BaF3 cells were transduced with retrovirus encoding FIG-ROS(S), FIG-ROS(L), or FLT-3ITD (the Internal tandem duplication mutation in FLT3 causes AML leukemia), and selected for IL3 independent growth. Karpas 299 cells, which express NPM-ALK, was used as a positive control. Retroviruses were generated as previously described (see PCT Publication No. WO 2010/093928, incorporated by reference).
# (§5) A MTS assay was performed using the CellTiter 96 Aqueous One Solution Reagent (Promega, Catalog No G3582). […] After 72 hours, 20 μl of the CellTiter 96 Aqueous One Solution Reagent was added into each well of a 96 well assay plate (flat bottom), and then 100 μl of cells grown with or without treatment. Media-only wells were used as controls. The 96 well plate was incubated for 1-4 hours at 37° C., and then viable cells were counted by reading the absorbance at 490 nm using a 96 well plate reader.
# [3] = tested on: BaF3 cells transduced with the FLT-3ITD retrovirus; test: Western blotting of phosphorylation in BaF3 cells transduced with the FLT-3ITD retrovirus; assay type: cell-based
# From the text: as §1, §2
# [4] = tested on: ALK in Karpas 299 cells; test: Western blotting of phosphorylation in Karpas 299 cells; assay type: cell-based; details: 0, 10, 50, or 100 nM for three hours, FIG. 20
# From the text: as §1, §2
# [5] = tested on: BaF3 cells expressing FIG-ROS(L); test: Flow cytometry, cleaved caspase-3 as apoptosis marker, BaF3 FIG-ROS(L); assay type: cell-based; details: in the presence of TAE-684, FIG. 19
# From the text: (§6) The mechanism of death of the BaF3 and Karpas 299 cells was next assessed by measuring the percentage of cleaved-caspase 3 positive cells by flow cytometry assay using cleaved caspase-3 as a marker for apoptosis.
# [6] = biological target: T1, FIG-ROS(S) (Homo sapiens, UniProt P08922); test: Western blotting of phosphorylation in FIG-ROS(S) expressing BaF3 cells; assay type: cell-based
# T1 construct: expressed in transfected cells; host or cells: BaF3 cells, retrovirally transduced, selected for IL3-independent growth
# From the text: as §1, §2
# [7] = tested on: BaF3 cells transduced with neo-myc; test: MTS assay, growth of BaF3 cells transduced with neo-myc (negative control); assay type: cell-based; details: Mus musculus, 72 hours, second experiment only
# Procedure: as §3, §5
# [8] = tested on: BaF3 expressing FLT3ITD; test: cells; details: for IC50: Mus musculus, BaF3, 72 h
# Procedure: as §3, §4, §5
# [9] = tested on: Karpas 299 cells; test: cells; details: for IC50: Homo sapiens, KARPAS-299, 72 h
# Procedure: as §3, §4, §5
# [10] = tested on: Karpas 299 cells; test: Flow cytometry, cleaved caspase-3 as apoptosis marker, Karpas 299; assay type: cell-based; details: in the presence of TAE-684, FIG. 19
# From the text: as §6
# [11] = tested on: BaF3 expressing FIG-ROS(S); test: MTS assay, growth of BaF3 cells expressing FIG-ROS(S); assay type: cell-based; details: for IC50: Mus musculus, BaF3, 72 h
# Procedure: as §3, §4, §5
# [12] = tested on: BaF3 cells expressing FIG-ROS(S); test: Flow cytometry, cleaved caspase-3 as apoptosis marker, BaF3 FIG-ROS(S); assay type: cell-based; details: in the presence of TAE-684, FIG. 19
# From the text: as §6
# [13] = 0, 10, 50, or 100 nM for three hours, FIG. 20
# [14] = 72 hours, first of two experiments
# [15] = 72 hours, second of two experiments
# [16] = same concentration of each, 0-1.0 uM, FIG. 21A/21B
# [17] = 0, 0.1, 0.3, or 1.0 uM for three hours, FIG. 22
compound,measurement,setting,value
COc1cc(N2CCC(N3CCN(C)CC3)CC2)ccc1Nc1ncc(Cl)c(Nc2ccccc2S(=O)(=O)C(C)C)n1 [TAE-684],phosphorylation of FIG-ROS(L),[1]; [13],inhibited
same,"phosphorylation of STAT3, AKT, and ERK, and Shp2",[1]; [13],inhibited
same,cellular growth response in the presence of TAE-684,"[2]; 0-1000 nM, 72 hours, FIG. 18",stopped growing
same,IC50,[2]; [14],1.78 nM
same,IC50,[2]; [15],2.84 nM
same,"sensitivity of cellular growth, TAE-684 compared with crizotinib",[2]; [16],more sensitive to TAE-684 than to crizotinib
same,"phosphorylation of STAT3, AKT, and ERK, and Shp2",[3]; [13],not affected
same,ALK and ERK phosphorylation,[4],inhibited
same,"mechanism of death, cleaved-caspase 3 positive cells (apoptosis)",[5],die by apoptosis
same,phosphorylation of FIG-ROS(S),[6]; [13],inhibited
same,"phosphorylation of STAT3, AKT, and ERK, and Shp2",[6]; [13],inhibited
same,IC50,[7],1640 nM
same,cellular growth response in the presence of TAE-684,"[8]; 0-1000 nM, 72 hours, FIG. 18",not susceptible
same,IC50,[8]; first of two experiments,419 nM
same,IC50,[8]; second of two experiments,316 nM
same,cellular growth response in the presence of TAE-684,"[9]; 0-1000 nM, 72 hours, FIG. 18",stopped growing
same,IC50,[9]; first of two experiments,4.85 nM
same,IC50,[9]; second of two experiments,4.36 nM
same,"mechanism of death, cleaved-caspase 3 positive cells (apoptosis)",[10],did not die by apoptosis
same,cellular growth response in the presence of TAE-684,"[11]; 0-1000 nM, 72 hours, FIG. 18",stopped growing
same,IC50,[11]; [14],10.2 nM
same,IC50,[11]; [15],15 nM
same,"sensitivity of cellular growth, TAE-684 compared with crizotinib",[11]; [16],more sensitive to TAE-684 than to crizotinib
same,"mechanism of death, cleaved-caspase 3 positive cells (apoptosis)",[12],die by apoptosis
C[C@@H](Oc1cc(-c2cnn(C3CCNCC3)c2)cnc1N)c1c(Cl)ccc(F)c1Cl [crizotinib],phosphorylation of FIG-ROS(L),[1]; [17],inhibited
same,phosphorylation of STAT3 and ERK,[1]; [17],inhibited
same,phosphorylation of STAT3 and ERK,[3]; [17],not affected
same,phosphorylation of FIG-ROS(S),[6]; [17],inhibited
same,phosphorylation of STAT3 and ERK,[6]; [17],inhibited
